Activity calls are given as the source filed them. The rule behind the calls is not given here.
What was measured:
HCT-116 [1] = assay: Cytotoxicity against human HCT116 cells assessed as growth inhibition after 3 days by SRB assay; assay type: functional, cell-based; details: HCT-116, 72 h
[2] = molecular target: T1, DNA topoisomerase 1 (Homo sapiens) (UniProt P11387); assay: Inhibition of topoisomerase 1 (unknown origin)-mediated relaxation of supercoiled pBR322 DNA at 100 uM by agarose gel electrophoresis
T1 sequence (whole entry): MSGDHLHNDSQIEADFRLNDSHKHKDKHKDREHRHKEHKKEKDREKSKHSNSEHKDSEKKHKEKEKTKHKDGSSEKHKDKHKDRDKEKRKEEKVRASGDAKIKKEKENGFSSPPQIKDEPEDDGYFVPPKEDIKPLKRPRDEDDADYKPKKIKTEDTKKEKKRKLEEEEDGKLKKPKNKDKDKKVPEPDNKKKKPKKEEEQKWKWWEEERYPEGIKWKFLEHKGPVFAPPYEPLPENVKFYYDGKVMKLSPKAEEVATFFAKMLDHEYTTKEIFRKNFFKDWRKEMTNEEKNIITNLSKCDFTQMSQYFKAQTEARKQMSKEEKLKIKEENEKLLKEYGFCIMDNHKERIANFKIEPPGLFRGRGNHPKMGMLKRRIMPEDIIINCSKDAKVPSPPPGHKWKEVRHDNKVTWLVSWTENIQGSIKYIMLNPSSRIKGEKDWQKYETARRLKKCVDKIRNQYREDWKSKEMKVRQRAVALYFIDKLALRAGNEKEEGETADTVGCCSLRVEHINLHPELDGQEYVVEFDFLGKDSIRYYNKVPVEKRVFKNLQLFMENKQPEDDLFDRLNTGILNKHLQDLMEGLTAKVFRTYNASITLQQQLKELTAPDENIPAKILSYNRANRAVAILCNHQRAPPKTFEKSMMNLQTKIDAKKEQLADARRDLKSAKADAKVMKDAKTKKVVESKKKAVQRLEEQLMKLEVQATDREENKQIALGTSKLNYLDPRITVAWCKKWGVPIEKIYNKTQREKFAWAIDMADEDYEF

HT-29 = assay: Cytotoxicity against human HT-29 cells assessed as growth inhibition after 3 days by SRB assay; assay type: functional, cell-based; details: HT-29, 72 h
A549 [3] = assay: Cytotoxicity against human A549 cells assessed as growth inhibition after 3 days by SRB assay; assay type: functional, cell-based; details: A549, 72 h
HCT-116 [4] = assay: Cytotoxicity against human HCT116 cells; assay type: functional, cell-based
A549 [5] = assay: Cytotoxicity against human A549 cells; assay type: functional, cell-based
MDA-MB-231 = assay: Cytotoxicity against human MDA-MB-231 cells; assay type: functional, cell-based
[6] = molecular target: T1, DNA topoisomerase 1 (Homo sapiens); assay: Inhibition of topoisomerase 1 (unknown origin)-mediated relaxation of supercoiled pBR322 DNA at 10 uM by agarose gel electrophoresis

SMILES | IC50 (HCT-116 [1]) [µM] | inhibition [2] | IC50 (HT-29) [µM] | IC50 (A549 [3]) [µM] | IC50 (HCT-116 [4]) [µM] | IC50 (A549 [5]) [µM] | IC50 (MDA-MB-231) [µM] | inhibition [6]
CC[C@@]1(O)C(=O)OCc2c1cc1n(c2=O)Cc2c-1nc1ccccc1c2-c1ccc2cn[nH]c2c1 | 0.011 | Active | 0.057 | 0.00318 |  |  |  | 
CC[C@@]1(O)C(=O)OCc2c1cc1n(c2=O)Cc2c-1nc1ccccc1c2-c1ccc2cc[nH]c2c1 | 0.0835 | Active | 0.231 | 0.0111 |  |  |  | 
CC[C@@]1(O)C(=O)OCc2c1cc1n(c2=O)Cc2c-1nc1ccccc1c2-c1ccnn1C | 0.458 | inactive | > 1 | 0.0563 |  |  |  | 
CCc1c2c(nc3ccc(O)cc13)-c1cc3c(c(=O)n1C2)COC(=O)[C@]3(O)CC [7-ETHYL-10-HYDROXYCAMPTOTHECIN] | 0.031 |  | 0.107 | 0.00272 | 0.166 | 0.259 | 0.176 | 
CC[C@@]1(O)C(=O)OCc2c1cc1n(c2=O)Cc2c-1nc1ccccc1c2-c1cccnc1 | 0.06 | inactive | 0.133 | 0.005 |  |  |  | 
CC[C@@]1(O)C(=O)OCc2c1cc1n(c2=O)Cc2c-1nc1ccccc1c2-c1cnn(C)c1 | 0.00351 | Active | 0.0218 | 0.00285 |  |  |  | Active
CC[C@@]1(O)C(=O)OCc2c1cc1n(c2=O)Cc2c-1nc1ccccc1c2-c1cnn(C2CCCCO2)c1 (stereo partly drawn) | 0.04 | Active | 0.0907 | 0.00726 |  |  |  | 
CCCCn1cc(-c2c3c(nc4ccccc24)-c2cc4c(c(=O)n2C3)COC(=O)[C@]4(O)CC)nn1 |  |  |  |  | 0.014 | < 0.01 | < 0.01 | 
CC[C@@]1(O)C(=O)OCc2c1cc1n(c2=O)Cc2c-1nc1ccccc1c2-c1ccncc1 | 0.0455 | inactive | 0.0987 | 0.00633 |  |  |  | 
